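Growth conditions: 96-well plates. Treatment: test compound, 48 hours, 5 concentrations. Analysis: linear interpolation between bracketing concentrations; unreached endpoints set to highest concentration. GI50 is the concentration that inhibits growth by half. At the TGI there is no net growth.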 Where a SMILES comes first, the peptide text is derived from it. The star is where a group is joined. Boc = CC(C)(C)OC(=O)*; Bn = c1ccc(C*)cc1
Experiments:
Test in all cases: NCI tumour cell line growth inhibition, 48 h
CCRF-CEM leukemia = tested on: CCRF-CEM leukemia
HOP-62 NSCLC = tested on: HOP-62 NSCLC
PC-3 prostate = tested on: PC-3 prostate
SK-MEL-28 melanoma = tested on: SK-MEL-28 melanoma
SK-MEL-5 melanoma = tested on: SK-MEL-5 melanoma
SK-OV-3 ovarian = tested on: SK-OV-3 ovarian
NCI-H226 lung = tested on: NCI-H226 lung

SMILES: C[C@H]1[C@H]2[C@H]3CC[C@@H]4[C@@]5(C)CC[C@H](O)C(C)(C)[C@@H]5CC[C@@]4(C)[C@]3(C)C[C@H](O)[C@@]2(C)C[C@H]2O[C@]21C
- TGI (CCRF-CEM leukemia): > 100 µM
- TGI (HOP-62 NSCLC): 57.7 µM
- TGI (PC-3 prostate): 27.1 µM
- TGI (SK-MEL-28 melanoma): 36.9 µM
- TGI (SK-MEL-5 melanoma): 42.6 µM
- TGI (SK-OV-3 ovarian): 39.3 µM

SMILES: NS(=O)(=O)c1ccc(/C=C/c2ccc(O)c(O)c2)cc1
- GI50 (CCRF-CEM leukemia): 4.79 µM
- TGI (CCRF-CEM leukemia): > 100 µM
- TGI (HOP-62 NSCLC): > 100 µM
- GI50 (NCI-H226 lung): 14 µM
- TGI (NCI-H226 lung): 60.2 µM
- TGI (PC-3 prostate): 83.5 µM
- TGI (SK-MEL-28 melanoma): 78.6 µM
- TGI (SK-MEL-5 melanoma): 29.6 µM
- TGI (SK-OV-3 ovarian): 48.8 µM

SMILES: O=C(N/N=C(\c1ccccc1)c1ccccn1)NC1CCCCC1
- TGI (CCRF-CEM leukemia): > 100 µM
- TGI (HOP-62 NSCLC): > 100 µM
- TGI (NCI-H226 lung): 83.2 µM
- TGI (PC-3 prostate): > 100 µM
- TGI (SK-MEL-28 melanoma): > 100 µM
- TGI (SK-MEL-5 melanoma): > 100 µM
- TGI (SK-OV-3 ovarian): > 100 µM

SMILES: Cc1ccc(-c2c(C#N)c(-c3ccc(C)cc3)n(NS(=O)(=O)c3ccccc3)c(=O)c2C#N)cc1
- TGI (CCRF-CEM leukemia): 77.7 µM
- TGI (HOP-62 NSCLC): > 100 µM
- TGI (NCI-H226 lung): > 100 µM
- TGI (PC-3 prostate): > 100 µM
- TGI (SK-MEL-28 melanoma): > 100 µM
- TGI (SK-MEL-5 melanoma): 31.2 µM
- TGI (SK-OV-3 ovarian): > 100 µM

SMILES: CN1CCc2c([nH]c3ccccc23)C1
- TGI (CCRF-CEM leukemia): > 100 µM
- TGI (HOP-62 NSCLC): > 100 µM
- TGI (NCI-H226 lung): > 100 µM
- TGI (PC-3 prostate): > 100 µM
- TGI (SK-MEL-28 melanoma): > 100 µM
- TGI (SK-MEL-5 melanoma): > 100 µM
- TGI (SK-OV-3 ovarian): > 100 µM

SMILES: COC(=O)C(CC(C)C)NC(=O)C(C)NC(=O)C(Cc1ccc(OCc2ccccc2)cc1)NC(=O)C(COCc1ccccc1)NC(=O)OC(C)(C)C (stereo not given) (Boc-S(Bn)Y(Bn)AL-OMe; configuration not given here)
- TGI (HOP-62 NSCLC): > 100 µM
- TGI (NCI-H226 lung): > 100 µM
- TGI (PC-3 prostate): > 100 µM
- TGI (SK-MEL-28 melanoma): > 100 µM
- TGI (SK-MEL-5 melanoma): > 100 µM
- TGI (SK-OV-3 ovarian): > 100 µM

SMILES: Cc1ccc2c(c1)C(=S)N1CSCC1c1nncn1-2 (stereo not given)
- TGI (CCRF-CEM leukemia): > 100 µM
- TGI (HOP-62 NSCLC): > 100 µM
- TGI (NCI-H226 lung): > 100 µM
- TGI (PC-3 prostate): > 100 µM
- TGI (SK-MEL-28 melanoma): > 100 µM
- TGI (SK-MEL-5 melanoma): > 100 µM
- TGI (SK-OV-3 ovarian): > 100 µM

SMILES: C=CCCON(C(=O)OC(C)(C)C)C(C)(C)C
- TGI (CCRF-CEM leukemia): > 100 µM
- TGI (HOP-62 NSCLC): > 100 µM
- TGI (NCI-H226 lung): > 100 µM
- TGI (PC-3 prostate): > 100 µM
- TGI (SK-MEL-28 melanoma): > 100 µM
- TGI (SK-MEL-5 melanoma): > 100 µM
- TGI (SK-OV-3 ovarian): > 100 µM

SMILES: O=C(O)C(O)C(O)C(O)C(O)c1nc2ccccc2s1 (stereo not given)
- TGI (CCRF-CEM leukemia): > 100 µM
- TGI (HOP-62 NSCLC): 33.5 µM
- TGI (NCI-H226 lung): 66.4 µM
- TGI (PC-3 prostate): 30 µM
- TGI (SK-MEL-28 melanoma): 38 µM
- TGI (SK-MEL-5 melanoma): 74.1 µM
- TGI (SK-OV-3 ovarian): 34.4 µM

SMILES: c1ccc(N=C(N2CCCC2)N(CCN2CCCC2)c2ccccc2)cc1
- TGI (CCRF-CEM leukemia): > 100 µM
- TGI (HOP-62 NSCLC): > 100 µM
- TGI (NCI-H226 lung): > 100 µM
- TGI (PC-3 prostate): > 100 µM
- TGI (SK-MEL-28 melanoma): > 100 µM
- TGI (SK-MEL-5 melanoma): 24.5 µM
- TGI (SK-OV-3 ovarian): > 100 µM

SMILES: CC1(C)[C@@H](Cn2ccc(=O)[nH]c2=O)CC[C@@]1(C)CO
- TGI (CCRF-CEM leukemia): > 100 µM
- TGI (HOP-62 NSCLC): > 100 µM
- TGI (NCI-H226 lung): > 100 µM
- TGI (PC-3 prostate): > 100 µM
- TGI (SK-MEL-28 melanoma): > 100 µM
- TGI (SK-MEL-5 melanoma): > 100 µM
- TGI (SK-OV-3 ovarian): > 100 µM

SMILES: COC(=O)C1=C(OC(=O)/C(=C/c2ccc(Cl)cc2)c2ccc(Cl)cc2)C(C(=O)OC)[C@@]2(O)[C@@H](C(=O)OC)[C@H](C)C[C@@H]1[C@@H]2C(=O)OC (stereo not given in full)
- TGI (CCRF-CEM leukemia): > 100 µM
- TGI (HOP-62 NSCLC): > 100 µM
- TGI (NCI-H226 lung): > 100 µM
- TGI (PC-3 prostate): > 100 µM
- TGI (SK-MEL-28 melanoma): > 100 µM
- TGI (SK-MEL-5 melanoma): > 100 µM
- TGI (SK-OV-3 ovarian): > 100 µM

SMILES: CCOC(=O)CCC(NC(=O)Cc1ccc(Nc2nc3cc(F)c(F)cc3nc2C(=O)OCC)cc1)C(=O)OCC (stereo not given)
- TGI (CCRF-CEM leukemia): 46.9 µM
- TGI (HOP-62 NSCLC): > 100 µM
- TGI (NCI-H226 lung): > 100 µM
- TGI (PC-3 prostate): > 100 µM
- TGI (SK-MEL-28 melanoma): > 100 µM
- TGI (SK-MEL-5 melanoma): > 100 µM
- TGI (SK-OV-3 ovarian): > 100 µM

SMILES: BrC1=C(Br)C2(SCCS2)[C@H]2C[C@@H]1c1ccccc12
- TGI (CCRF-CEM leukemia): > 100 µM
- TGI (HOP-62 NSCLC): > 100 µM
- TGI (NCI-H226 lung): > 100 µM
- TGI (PC-3 prostate): > 100 µM
- TGI (SK-MEL-28 melanoma): > 100 µM
- TGI (SK-MEL-5 melanoma): > 41.6 µM
- TGI (SK-OV-3 ovarian): > 100 µM

SMILES: CCO/C(O)=C(/C(=N)N1CCOCC1)C(=O)Nc1ccc(F)cc1
- TGI (CCRF-CEM leukemia): > 100 µM
- TGI (HOP-62 NSCLC): > 100 µM
- TGI (NCI-H226 lung): > 100 µM
- TGI (PC-3 prostate): > 100 µM
- TGI (SK-MEL-28 melanoma): > 100 µM
- TGI (SK-OV-3 ovarian): > 100 µM

SMILES: COC(=O)C1=C(C(=O)OC)N(c2ccc(OC)cc2[N+](=O)[O-])C(c2ccc(C)cc2)=CC1c1ccc(OC)cc1OC (stereo not given)
- TGI (CCRF-CEM leukemia): > 32.4 µM
- TGI (HOP-62 NSCLC): > 72.7 µM
- TGI (NCI-H226 lung): 49.9 µM
- TGI (PC-3 prostate): > 100 µM
- TGI (SK-MEL-28 melanoma): > 100 µM
- TGI (SK-MEL-5 melanoma): > 100 µM
- TGI (SK-OV-3 ovarian): 73.3 µM

SMILES: O=C(Nc1ccccc1)c1cc(S(=O)(=O)NC2=NC(c3ccccc3)c3cc(Cl)ccc3N2)c(SSc2cc(Cl)c(C(=O)Nc3ccccc3)cc2S(=O)(=O)NC2=NC(c3ccccc3)c3cc(Cl)ccc3N2)cc1Cl (stereo not given)
- TGI (HOP-62 NSCLC): > 100 µM
- TGI (NCI-H226 lung): > 100 µM
- TGI (PC-3 prostate): > 100 µM
- TGI (SK-MEL-28 melanoma): > 100 µM
- TGI (SK-MEL-5 melanoma): > 100 µM
- TGI (SK-OV-3 ovarian): > 100 µM

SMILES: COc1cc(Nc2nc3ccccc3nc2C(=O)O)cc(OC)c1OC
- TGI (CCRF-CEM leukemia): > 100 µM
- TGI (HOP-62 NSCLC): > 100 µM
- TGI (NCI-H226 lung): > 100 µM
- TGI (PC-3 prostate): > 100 µM
- TGI (SK-MEL-28 melanoma): > 100 µM
- TGI (SK-MEL-5 melanoma): > 100 µM
- TGI (SK-OV-3 ovarian): > 100 µM

SMILES: Cn1c(=O)c2c(ncn2CCNC(CO)C(O)c2ccc([N+](=O)[O-])cc2)n(C)c1=O (stereo not given)
- TGI (CCRF-CEM leukemia): > 100 µM
- TGI (HOP-62 NSCLC): > 100 µM
- TGI (NCI-H226 lung): > 100 µM
- TGI (PC-3 prostate): > 100 µM
- TGI (SK-MEL-28 melanoma): > 100 µM
- TGI (SK-MEL-5 melanoma): > 100 µM
- TGI (SK-OV-3 ovarian): > 100 µM

SMILES: O=C1C2SC34c5c2c2ccccc2n5CCC3CCCN14 (stereo not given)
- TGI (HOP-62 NSCLC): > 100 µM
- TGI (NCI-H226 lung): > 100 µM
- TGI (PC-3 prostate): > 100 µM
- TGI (SK-MEL-28 melanoma): > 100 µM
- TGI (SK-MEL-5 melanoma): > 100 µM
- TGI (SK-OV-3 ovarian): > 100 µM

SMILES: CO/N=C(\C)c1ccc(Nc2nc3ccccc3c3occc23)cc1
- TGI (CCRF-CEM leukemia): 42.2 µM
- TGI (HOP-62 NSCLC): 29.5 µM
- TGI (NCI-H226 lung): 24 µM
- TGI (PC-3 prostate): 30.3 µM
- TGI (SK-MEL-5 melanoma): 29.8 µM
- TGI (SK-OV-3 ovarian): 29.5 µM

SMILES: O=C1c2ccccc2C(=O)c2c(NCC(O)CO)ccc(NCC(O)CO)c21 (stereo not given)
- TGI (CCRF-CEM leukemia): > 100 µM
- TGI (HOP-62 NSCLC): > 100 µM
- TGI (NCI-H226 lung): > 100 µM
- TGI (PC-3 prostate): > 100 µM
- TGI (SK-MEL-28 melanoma): > 100 µM
- TGI (SK-MEL-5 melanoma): > 100 µM
- TGI (SK-OV-3 ovarian): > 100 µM

SMILES: COC[C@@H](N=CC(C)(C)C)C(C)C
- TGI (CCRF-CEM leukemia): > 100 µM
- TGI (HOP-62 NSCLC): > 100 µM
- TGI (NCI-H226 lung): > 100 µM
- TGI (PC-3 prostate): > 100 µM
- TGI (SK-MEL-28 melanoma): > 100 µM
- TGI (SK-MEL-5 melanoma): > 100 µM
- TGI (SK-OV-3 ovarian): > 100 µM

SMILES: CN1C(=O)c2ccccc2OC12C=Cc1c(ccc3ccccc13)O2 (stereo not given)
- TGI (CCRF-CEM leukemia): > 29.6 µM
- TGI (HOP-62 NSCLC): 27.3 µM
- TGI (NCI-H226 lung): 48.6 µM
- TGI (PC-3 prostate): 16.8 µM
- TGI (SK-MEL-28 melanoma): > 67.6 µM
- TGI (SK-MEL-5 melanoma): 23 µM
- TGI (SK-OV-3 ovarian): 27.4 µM

SMILES: N#CC1C(=S)NC(c2ccccc2)=CC12CCCCC2 (stereo not given)
- TGI (CCRF-CEM leukemia): 56.4 µM
- TGI (NCI-H226 lung): 77.4 µM
- TGI (PC-3 prostate): > 100 µM
- TGI (SK-MEL-28 melanoma): 95.5 µM
- TGI (SK-MEL-5 melanoma): 90.4 µM

SMILES: CO[C@@]12C[C@@H](C)C3=CCC(C)=C3CC1=C(C)C(=O)O2
- TGI (CCRF-CEM leukemia): > 100 µM
- TGI (NCI-H226 lung): > 100 µM
- TGI (PC-3 prostate): > 100 µM
- TGI (SK-MEL-28 melanoma): > 100 µM
- TGI (SK-MEL-5 melanoma): > 100 µM
- TGI (SK-OV-3 ovarian): > 100 µM

Reference: PubChem BioAssay (NCI)
